# Measured values as given in patent US6747039B2, “Aza-benzothiopyranoindazoles with antitumor activity” (Albany Molecular Research, Inc., priority 2002, dated 2004).
# Test system: HeLa S-3 cells
# Assay: Inhibition of cell growth (sulforhodamine B) to determine GI50
# Assay type: cell-based
# Settings: Homo sapiens, HeLa S3; HeLa cells; Table 5, aza-analogs; read-out: IC50 (aza-analogs)
# Procedure: Growth inhibition (GI50) values were measured with HeLa S-3 cells selected for growth on plastic. The procedure was based on the protocol of Skehan et al. (Skehan, P., et al., J. Natl. Cancer Inst., 82:1107-1112 (1990), which is hereby incorporated by reference). HeLa cells were plated at 2×10^4 cells/well in 96 well plates. One day later, a control plate was fixed by addition of TCA to 5%. After five rinses with tap water, the plate was air dried and stored at 4° C. Test compounds were added to the remaining plates at 10-fold dilutions between 0.01 and 100 μM. Two days later, all plates were fixed as described above. Cells were then stained by the addition of 100 μl per well of 0.4% sulforhodamine B (SRB) in 1% acetic acid for 30 min at 4° C. Wells were then quickly rinsed 5× with acetic acid (1%) and allowed to air dry. The SRB was then solubilized by the addition of 100 μl per well of unbuffered 10 mM Tris base. Dye was quantified by measuring absorbance at 490 nm on a Molecular Devices kinetic microplate reader. Growth at each inhibitor concentration relative to the untreated control was calculated according to the following equation: percent growth=100×(T−To)/(C−To), where T was the average optical density (OD) of the test wells after 2 days of treatment, To was the average OD of the wells in the control plate on day 0 and C was the average OD of untreated wells. Plots of percent growth versus inhibitor concentration were used to determine the GI50.
# The data below shown in Table 4 summarizes the in vitro cyclin/cdk inhibition constants (IC50) of HeLa Cells for the compounds of the current invention.
row,SMILES,IC50 [nM]
1,CCN(CC)CCNc1cccc2sc3ccncc3c(=O)c12,3000
2,CCN(CC)CCNc1ccc(CNC=O)c2sc3ccncc3c(=O)c12,1000
3,CCN(CC)CCNc1ccc(CN)c2sc3ccncc3c(=O)c12,700
4,CCN(CC)CCNc1ccc(CNS(C)(=O)=O)c2sc3ccncc3c(=O)c12,400
5,CCN(CC)CCNc1ccc(CNC(=O)OC)c2sc3ccncc3c(=O)c12,300
6,CCN(CC)CCn1nc2c3c(cccc31)Sc1ccncc1-2,1000
7,CCN(CC)CCn1nc2c3c(c(CN)ccc31)Sc1ccncc1-2 [drawing 112],200
8,CCN(CC)CCn1nc2c3c(c(CNC=O)ccc31)Sc1ccncc1-2 [drawing 114],200
9,CCN(CC)CCn1nc2c3c(c(CNC(=O)OC)ccc31)Sc1ccncc1-2 [drawing 116],100
10,CCN(CC)CCn1nc2c3c(c(CNS(C)(=O)=O)ccc31)Sc1ccncc1-2 [drawing 118],300
11,CCN(CC)CCn1nc2c3c(c(CNC(=O)OC)ccc31)Sc1ncccc1-2 [drawing 120],500
12,CCN(CC)CCn1nc2c3c(c(CNS(C)(=O)=O)ccc31)Sc1ncccc1-2 [drawing 122],300
13,CCN(CC)CCn1nc2c3c(c(CN)ccc31)Sc1ncccc1-2 [drawing 124],200
14,CCN(CC)CCn1nc2c3c(c(CNC=O)ccc31)Sc1ncccc1-2 [drawing 126],500

# Same assay, conditions: Homo sapiens, HeLa S3; HeLa cells; Table 5, carbocyclic congeners; read-out: IC50 (carbocyclic congeners)
row,SMILES,IC50 [nM]
1,CCN(CC)CCNc1cccc2sc3ccccc3c(=O)c12 [reference compound],> 10000
2,CCN(CC)CCNc1ccc(CNC=O)c2sc3ccccc3c(=O)c12 [reference compound],3000
3,CCN(CC)CCNc1ccc(CN)c2sc3ccccc3c(=O)c12 [reference compound],600
4,CCN(CC)CCn1nc2c3c(cccc31)Sc1ccccc1-2 [reference compound],9000
5,CCN(CC)CCn1nc2c3c(c(CN)ccc31)Sc1ccccc1-2 [reference compound],1000
6,CCN(CC)CCn1nc2c3c(c(CNC=O)ccc31)Sc1ccccc1-2 [reference compound],1000
7,CCN(CC)CCn1nc2c3c(c(CNC(=O)OC)ccc31)Sc1ccccc1-2 [reference compound],3000
8,CCN(CC)CCn1nc2c3c(c(CNS(C)(=O)=O)ccc31)Sc1ccccc1-2 [reference compound],900

# Same assay, conditions: Homo sapiens, HeLa S3; Table 6, comparison of nitrogen position, first compound of pair
row,SMILES,GI50 [nM]
1,CCN(CC)CCn1nc2c3c(c(C)ccc31)Sc1ccncc1-2,100
2,CCN(CC)CCNc1ccc(C)c2sc3ccncc3c(=O)c12,400
3,CCN(CC)CCn1nc2c3c(c(CN)ccc31)Sc1ccncc1-2 [drawing 127],200
4,CCN(CC)CCn1nc2c3c(c(CNC=O)ccc31)Sc1ccncc1-2 [drawing 129],50
5,CCN(CC)CCn1nc2c3c(c(CNC(=O)OC)ccc31)Sc1ccncc1-2 [drawing 131],100
6,CCN(CC)CCn1nc2c3c(c(CNS(C)(=O)=O)ccc31)Sc1ccncc1-2 [drawing 133],200

# Same assay, conditions: Homo sapiens, HeLa S3; Table 6, comparison of nitrogen position, second compound of pair
row,SMILES,GI50 [nM]
1,CCN(CC)CCn1nc2c3c(c(C)ccc31)Sc1ncccc1-2,600
2,CCN(CC)CCNc1ccc(C)c2sc3ncccc3c(=O)c12,3000
3,CCN(CC)CCn1nc2c3c(c(CN)ccc31)Sc1ncccc1-2 [drawing 128],200
4,CCN(CC)CCn1nc2c3c(c(CNC=O)ccc31)Sc1ncccc1-2 [drawing 130],500
5,CCN(CC)CCn1nc2c3c(c(CNC(=O)OC)ccc31)Sc1ncccc1-2 [drawing 132],500
6,CCN(CC)CCn1nc2c3c(c(CNS(C)(=O)=O)ccc31)Sc1ncccc1-2 [drawing 134],300
